Reference: patent US20250179000A1 (Sanford Burnham Prebys Medical Discovery Institute, priority 2021, published 2025)

Tests used:
Assay type in all cases: cell-based
Rat mGlu2 = target: T1, Rat mGlu2 (Rattus norvegicus, UniProt P31421); experiment: mGlu receptor in vitro assay, thallium flux through GIRK channels, rat mGlu2; settings: PAM potency with EC20 glutamate
T1 construct: expressed in transfected cells; host or cells: HEK-293 co-expressing GIRK channels
Procedure, shortened: (§1)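 HEK-293 cells co-expressing rat mGlu2 or mGlu3 and GIRK, dye-loaded with FluoZin2-AM, compound added about 2.5 min before thallium buffer with EC20 glutamate; potency from the 5-15 s fluorescence slope, 10-point 4-parameter fit. Calcium assay at mGlu3 used TREx293 mGlu3 Gα15 cells induced with tetracycline 20 ng/mL for 20 h.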

Human mGlu3 = Human mGlu3 (Homo sapiens, UniProt Q14832); experiment: mGlu receptor in vitro assay, human mGlu3
Chain of Human mGlu3 (Q14832 23-879): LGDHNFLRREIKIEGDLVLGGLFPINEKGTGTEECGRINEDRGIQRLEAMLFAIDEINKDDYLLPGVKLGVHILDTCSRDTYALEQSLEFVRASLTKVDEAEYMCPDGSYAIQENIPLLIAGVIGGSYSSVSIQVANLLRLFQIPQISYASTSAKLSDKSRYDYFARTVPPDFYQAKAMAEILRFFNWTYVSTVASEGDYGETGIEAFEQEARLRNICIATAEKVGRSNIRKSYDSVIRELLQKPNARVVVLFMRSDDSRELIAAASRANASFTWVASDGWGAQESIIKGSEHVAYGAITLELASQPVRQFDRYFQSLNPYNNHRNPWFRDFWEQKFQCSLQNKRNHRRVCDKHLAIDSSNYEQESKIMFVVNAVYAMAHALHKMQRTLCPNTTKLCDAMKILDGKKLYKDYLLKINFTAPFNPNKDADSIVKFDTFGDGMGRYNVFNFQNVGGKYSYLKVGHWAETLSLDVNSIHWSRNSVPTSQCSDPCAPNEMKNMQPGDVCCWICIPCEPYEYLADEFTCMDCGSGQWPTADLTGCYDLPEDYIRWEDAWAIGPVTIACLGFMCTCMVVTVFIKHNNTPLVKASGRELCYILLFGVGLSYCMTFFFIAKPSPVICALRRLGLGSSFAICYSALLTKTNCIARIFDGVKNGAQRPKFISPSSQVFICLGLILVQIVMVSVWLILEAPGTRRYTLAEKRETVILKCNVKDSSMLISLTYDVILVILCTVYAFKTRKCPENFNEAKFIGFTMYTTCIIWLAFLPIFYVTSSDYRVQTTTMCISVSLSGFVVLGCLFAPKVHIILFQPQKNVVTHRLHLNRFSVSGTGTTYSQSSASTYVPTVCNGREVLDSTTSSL
Protocol: Human Embryonic Kidney (HEK-293) cell lines co-expressing rat mGlu receptors 2, 3, 4, 6, 7 or 8 and G protein-coupled inwardly-rectifying potassium (GIRK) channels were grown in Growth Media containing 45% DMEM, 45% F-12, 10% FBS, 20 mM HEPES, 2 mM L-glutamine, antibiotic/antimycotic, non-essential amino acids, 700 μg/mL G418, and 0.6 μg/ml puromycin at 37° C. in the presence of 5% CO2. […] All cell culture reagents were purchased from Invitrogen Corp. (Carlsbad, CA) unless otherwise noted. Calcium assays were used to assess activity of compounds at mGlu1 and mGlu5, as previously described in Engers et al (J. Med. Chem. 2009, 52, 4115-4118). Calcium assays at mGlu3 were performed as described for mGlu5 with the exception that TREx293 mGlu3 Gα15 cells were treated with tetracycline at 20 ng/mL for 20 h prior to assay.
Briefly, cells were plated into 384-well, black-walled, clear-bottomed poly-D-lysine-coated plates at a density of 15,000 cells/20 μL/well in DMEM containing 10% dialyzed FBS, 20 mM HEPES, and 100 units/mL penicillin/streptomycin (assay media). Plated cells were incubated overnight at 37° C. in the presence of 5% CO2. The following day, the medium was exchanged from the cells to assay buffer [Hanks' balanced salt solution (Invitrogen) containing 20 mM HEPES, pH 7.3] using an ELX405 microplate washer (BioTek), leaving 20 μL/well, followed by the addition of 20 μL/well FluoZin2-AM (330 nM final concentration) indicator dye (Invitrogen; prepared as a stock in DMSO and mixed in a 1:1 ratio with Pluronic acid F-127) in assay buffer. Cells were incubated for 1 h at room temperature, and the dye exchanged to assay buffer using an ELX405, leaving 20 μL/well. Test compounds were diluted to 2 times their final desired concentration in assay buffer (0.3% DMSO final concentration). Agonists were diluted in thallium buffer [125 mM sodium bicarbonate (added fresh the morning of the experiment), 1 mM magnesium sulfate, 1.8 mM calcium sulfate, 5 mM glucose, 12 mM thallium sulfate, and 10 mM HEPES, pH 7.3] at 5 times the final concentration to be assayed. Cell plates and compound plates were loaded onto a kinetic imaging plate reader (FDSS 6000 or 7000; Hamamatsu Corporation, Bridgewater, NJ). Appropriate baseline readings were taken (10 images at 1 Hz; excitation, 470±20 nm; emission, 540±30 nm) and test compounds were added in a 20 μL volume and incubated for approximately 2.5 min before the addition of 10 μL of thallium buffer with or without agonist. After the addition of agonist, data were collected for approximately an additional 2.5 min. Data were analyzed using Excel (Microsoft Corp, Redmond, WA). The slope of the fluorescence increase beginning 5 s after thallium/agonist addition and ending 15 s after thallium/agonist addition was calculated, corrected to vehicle and maximal agonist control slope values, and plotted in using either XLfit (ID Business Solutions Ltd) or Prism software (GraphPad Software, San Diego, CA) to generate concentration-response curves. Potencies were calculated from fits using a four-point parameter logistic equation. For concentration-response curve experiments, compounds were serially diluted 1:3 into 10-point concentration response curves and were transferred to daughter plates using an Echo acoustic plate reformatter (Labcyte, Sunnyvale, CA). Test compounds were applied and followed by EC20 concentrations of glutamate.

Human mGlu2 = Human mGlu2 (Homo sapiens, UniProt Q14416); experiment: mGlu receptor in vitro assay, human mGlu2
Chain of Human mGlu2 (Q14416 19-872): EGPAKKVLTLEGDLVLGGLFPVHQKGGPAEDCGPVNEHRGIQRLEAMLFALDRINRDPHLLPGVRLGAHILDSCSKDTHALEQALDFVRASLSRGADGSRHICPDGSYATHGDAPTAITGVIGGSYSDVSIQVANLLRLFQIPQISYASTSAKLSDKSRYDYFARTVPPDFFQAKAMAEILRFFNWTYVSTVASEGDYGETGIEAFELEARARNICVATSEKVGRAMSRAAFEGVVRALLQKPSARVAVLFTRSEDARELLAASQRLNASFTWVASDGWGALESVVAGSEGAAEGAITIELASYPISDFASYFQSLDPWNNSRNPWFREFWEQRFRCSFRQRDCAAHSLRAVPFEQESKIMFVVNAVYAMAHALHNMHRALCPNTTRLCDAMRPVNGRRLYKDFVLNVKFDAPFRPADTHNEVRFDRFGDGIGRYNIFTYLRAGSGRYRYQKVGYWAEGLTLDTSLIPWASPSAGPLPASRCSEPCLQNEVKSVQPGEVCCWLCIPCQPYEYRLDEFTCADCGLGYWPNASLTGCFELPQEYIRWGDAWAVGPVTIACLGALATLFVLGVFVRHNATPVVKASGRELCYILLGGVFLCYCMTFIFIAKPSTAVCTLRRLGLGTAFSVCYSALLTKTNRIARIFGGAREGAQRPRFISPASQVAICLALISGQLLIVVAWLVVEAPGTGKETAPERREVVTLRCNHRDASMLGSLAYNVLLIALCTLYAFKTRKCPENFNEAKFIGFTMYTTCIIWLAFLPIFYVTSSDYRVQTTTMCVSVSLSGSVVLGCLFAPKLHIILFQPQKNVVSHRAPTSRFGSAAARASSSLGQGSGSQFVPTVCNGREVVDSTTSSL

Rat mGlu3 = target: T2, Rat mGlu3 (Rattus norvegicus, UniProt P31422); experiment: mGlu receptor in vitro assay (thallium flux through GIRK channels / calcium assay), rat mGlu3; settings: PAM potency with EC20 glutamate
T2 construct: expressed in transfected cells; host or cells: HEK-293 co-expressing GIRK channels
T2 sequence (P31422 23-879): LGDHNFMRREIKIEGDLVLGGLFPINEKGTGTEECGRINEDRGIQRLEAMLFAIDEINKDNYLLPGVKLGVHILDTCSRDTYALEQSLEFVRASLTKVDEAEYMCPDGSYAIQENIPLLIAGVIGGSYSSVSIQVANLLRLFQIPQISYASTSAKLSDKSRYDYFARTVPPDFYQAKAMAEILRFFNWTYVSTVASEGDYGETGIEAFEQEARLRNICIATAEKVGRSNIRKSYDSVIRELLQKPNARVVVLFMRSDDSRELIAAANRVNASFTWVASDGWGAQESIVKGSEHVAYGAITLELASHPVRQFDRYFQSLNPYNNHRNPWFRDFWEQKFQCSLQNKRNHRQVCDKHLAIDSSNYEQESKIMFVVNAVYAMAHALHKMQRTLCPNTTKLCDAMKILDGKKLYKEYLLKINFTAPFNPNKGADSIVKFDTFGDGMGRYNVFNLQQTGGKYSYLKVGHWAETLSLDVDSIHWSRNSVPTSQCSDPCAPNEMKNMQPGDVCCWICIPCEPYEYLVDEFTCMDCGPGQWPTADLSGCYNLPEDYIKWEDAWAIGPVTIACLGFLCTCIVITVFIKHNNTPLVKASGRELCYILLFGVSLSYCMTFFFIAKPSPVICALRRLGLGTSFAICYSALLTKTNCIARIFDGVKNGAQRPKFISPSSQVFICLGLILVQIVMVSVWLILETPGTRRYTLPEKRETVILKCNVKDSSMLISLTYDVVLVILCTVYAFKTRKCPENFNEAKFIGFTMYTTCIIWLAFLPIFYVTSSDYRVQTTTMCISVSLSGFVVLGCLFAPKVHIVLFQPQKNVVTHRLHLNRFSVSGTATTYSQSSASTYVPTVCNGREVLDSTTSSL
Procedure, shortened: as §1

T1 sequence (P31421 19-872): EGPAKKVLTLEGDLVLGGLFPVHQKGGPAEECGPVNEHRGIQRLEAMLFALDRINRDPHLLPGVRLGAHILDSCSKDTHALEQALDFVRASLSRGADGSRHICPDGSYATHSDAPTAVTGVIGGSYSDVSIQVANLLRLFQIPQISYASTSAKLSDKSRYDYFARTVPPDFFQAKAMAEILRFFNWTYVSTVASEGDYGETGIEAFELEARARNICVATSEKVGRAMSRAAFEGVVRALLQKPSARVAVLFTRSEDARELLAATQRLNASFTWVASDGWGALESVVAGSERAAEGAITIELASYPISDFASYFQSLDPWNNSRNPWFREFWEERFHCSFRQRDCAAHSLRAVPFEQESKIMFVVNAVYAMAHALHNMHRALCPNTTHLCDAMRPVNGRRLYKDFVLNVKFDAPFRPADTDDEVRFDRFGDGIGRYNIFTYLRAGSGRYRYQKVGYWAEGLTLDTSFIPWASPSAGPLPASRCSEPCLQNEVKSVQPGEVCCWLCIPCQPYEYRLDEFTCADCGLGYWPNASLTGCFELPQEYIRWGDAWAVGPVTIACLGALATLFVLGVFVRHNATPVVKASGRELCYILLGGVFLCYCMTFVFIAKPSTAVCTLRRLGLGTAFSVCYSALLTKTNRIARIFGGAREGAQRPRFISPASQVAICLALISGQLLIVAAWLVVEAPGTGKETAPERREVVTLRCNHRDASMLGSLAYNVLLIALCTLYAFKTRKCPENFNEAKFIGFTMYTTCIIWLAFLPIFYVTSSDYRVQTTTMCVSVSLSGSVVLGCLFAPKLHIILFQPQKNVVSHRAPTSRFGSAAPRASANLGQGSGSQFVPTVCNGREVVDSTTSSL

`CCCC(=O)c1ccc(OCCOCCOc2cccc(C(=O)O)c2C)c(C)c1O` [Example 7, 3-(2-(2-(4-Butyryl-3-hydroxy-2-methylphenoxy)ethoxy)ethoxy)-2-methylbenzoic acid] gave an EC50 (Rat mGlu2) of 158 nM, an EC50 (Human mGlu3) greater than 10000 nM and an EC50 (Human mGlu2) of 116 nM. For the same compound, the EC50 (Rat mGlu3) was greater than 30000 nM.
`COc1ccc(C(=O)O)cc1OCCCCCCCCOc1ccc(C(=O)CC(C)(C)C)c(O)c1C` [Example 18, 3-{8-[4-(3,3-Dimethylbutanoyl)-3-hydroxy-2-methylphenoxy]octyloxy}-4-methoxybenzoic acid] showed an EC50 (Human mGlu3) greater than 10000 nM and an EC50 (Human mGlu2) of 882 nM.
For `COc1ccc(C(=O)O)cc1OCCN(CCOc1ccc(C(=O)CC(C)(C)C)c(O)c1C)S(=O)(=O)c1ccc(C)cc1` [Example 31, 3-[2-({2-[4-(3,3-Dimethylbutanoyl)-3-hydroxy-2-methylphenoxy]ethyl}[(4-methylphenyl)sulfonyl]amino)ethoxy]-4-methoxybenzoic acid], the EC50 (Human mGlu3) was greater than 30000 nM and the EC50 (Human mGlu2) was 373 nM.
`COc1c(C(=O)O)cccc1-c1ccc(COc2ccc(C(=O)CC(C)(C)C)c(O)c2C)nn1` [compound 154, 3-(6-((4-(3,3-Dimethylbutanoyl)-3-hydroxy-2-methylphenoxy)methyl)pyridazin-3-yl)-2-methoxybenzoic acid] showed an EC50 (Human mGlu3) of 184 nM and an EC50 (Human mGlu2) of 281 nM.
Compound `COc1cccc(C(=O)c2ccc(OCc3cccc(-c4cccc(C(=O)O)c4)c3)c(C)c2O)c1` [compound 62, 3′-((3-Hydroxy-4-(3-methoxybenzoyl)-2-methylphenoxy)methyl)-[1,1′-biphenyl]-3-carboxylic acid] has an EC50 (Human mGlu3) of 1600 nM and an EC50 (Human mGlu2) of 1170 nM.
`Cc1c(OCc2cnc(-c3cc(F)cc(C(=O)O)c3)cn2)ccc(C(=O)CC(C)(C)C)c1O` [compound 139, 3-(5-((4-(3,3-Dimethylbutanoyl)-3-hydroxy-2-methylphenoxy)methyl)pyrazin-2-yl)-5-fluorobenzoic acid] was tested, and the EC50 (Human mGlu3) was 1080 nM and the EC50 (Human mGlu2) was 1750 nM.
`Cc1c(C(=O)O)cccc1-c1noc(COc2ccc(C(=O)CC(C)(C)C)c(O)c2C)n1` [compound 157, 3-(5-((4-(3,3-Dimethylbutanoyl)-3-hydroxy-2-methylphenoxy)methyl)-1,2,4-oxadiazol-3-yl)-2-methylbenzoic acid] gave an EC50 (Human mGlu3) of 148 nM and an EC50 (Human mGlu2) of 48 nM.
Compound `COc1c(C(=O)O)cccc1-c1ccc(COc2ccc(C(=O)CC(C)(C)C)c(O)c2C)cn1` [compound 153, 3-(5-((4-(3,3-Dimethylbutanoyl)-3-hydroxy-2-methylphenoxy)methyl)pyridin-2-yl)-2-methoxybenzoic acid] has an EC50 (Human mGlu3) of 133 nM and an EC50 (Human mGlu2) of 69 nM.
In the case of `Cc1c(OCc2cnc(-c3cncc(C(=O)O)c3)cn2)ccc(C(=O)CC(C)(C)C)c1O` [compound 148, 5-(5-((4-(3,3-Dimethylbutanoyl)-3-hydroxy-2-methylphenoxy)methyl)pyrazin-2-yl)nicotinic acid], the EC50 (Human mGlu3) is reported as greater than 30000 nM and the EC50 (Human mGlu2) is reported as greater than 10000 nM.
`COc1c(C(=O)O)cccc1-c1cnc(COc2ccc(C(=O)CC(C)(C)C)c(O)c2C)nc1` [compound 159, 3-(2-((4-(3,3-Dimethylbutanoyl)-3-hydroxy-2-methylphenoxy)methyl)pyrimidin-5-yl)-2-methoxybenzoic acid] gave an EC50 (Human mGlu3) of 85 nM and an EC50 (Human mGlu2) of 44 nM.
`COc1ccc(C(=O)O)cc1-c1noc(COc2ccc(C(=O)CC(C)(C)C)c(O)c2C)n1` [compound 156, 3-(5-((4-(3,3-Dimethylbutanoyl)-3-hydroxy-2-methylphenoxy)methyl)-1,2,4-oxadiazol-3-yl)-4-methoxybenzoic acid] gave an EC50 (Human mGlu3) of 117 nM and an EC50 (Human mGlu2) of 78 nM.
`Cc1c(OCc2cnc(-c3ccc(C(=O)O)cc3Cl)cn2)ccc(C(=O)CC(C)(C)C)c1O` [compound 143, 3-Chloro-4-(5-((4-(3,3-Dimethylbutanoyl)-3-hydroxy-2-methylphenoxy)methyl)pyrazin-2-yl)benzoic acid] gave an EC50 (Human mGlu3) of 580 nM and an EC50 (Human mGlu2) of 291 nM.
For `Cc1c(OCc2cnc(-c3ccc(Cl)c(C(=O)O)c3)cn2)ccc(C(=O)CC(C)(C)C)c1O` [compound 138, 2-Chloro-5-(5-((4-(3,3-Dimethylbutanoyl)-3-hydroxy-2-methylphenoxy)methyl)pyrazin-2-yl)benzoic acid], the EC50 (Human mGlu3) was 104 nM and the EC50 (Human mGlu2) was 445 nM.
For `[2H]/C(=C(/[2H])C([2H])([2H])Oc1ccc(C(=O)CCC)c(O)c1C)C([2H])([2H])Oc1cccc(C(=O)O)c1C` [Example 58, (E)-3-((4-(4-Butyryl-3-hydroxy-2-methylphenoxy)but-2-en-1-yl-1,1,2,3,4,4-d6)oxy)-2-methylbenzoic acid], the EC50 (Human mGlu3) was 540 nM and the EC50 (Human mGlu2) was 8 nM.
For `COc1ccc(C(=O)O)cc1OCCCCCCCCCOc1ccc(C(=O)CC(C)(C)C)c(O)c1C` [Example 27, 3-{9-[4-(3,3-Dimethylbutanoyl)-3-hydroxy-2-methylphenoxy]nonyloxy}-4-methoxybenzoic acid], the EC50 (Human mGlu3) was 1120 nM and the EC50 (Human mGlu2) was 710 nM.
Compound `COc1ccc(C(=O)O)c(-c2cnc(COc3ccc(C#CCOCC(O)CO)c(C)c3C)cn2)c1` (centres unmarked) [compound 151] has an EC50 (Human mGlu3) greater than 30000 nM and an EC50 (Human mGlu2) greater than 30000 nM.
For `Cc1cc(C(=O)O)ccc1-c1cnc(COc2ccc(C(=O)CC(C)(C)C)c(O)c2C)cn1` [compound 144, 4-(5-{[4-(3,3-Dimethylbutanoyl)-3-hydroxy-2-methylphenoxy]methyl}pyrazin-2-yl)-3-methylbenzoic acid], the EC50 (Human mGlu3) was 89 nM and the EC50 (Human mGlu2) was 112 nM.
`COc1ccc(C(=O)c2ccc(OCCCCOc3cc(C(=O)O)ccc3OC)c(C)c2O)cc1` [compound 63, 3-(4-(3-Hydroxy-4-(4-methoxybenzoyl)-2-methylphenoxy)butoxy)-4-methoxybenzoic acid] showed an EC50 (Human mGlu3) of 557 nM and an EC50 (Human mGlu2) of 507 nM.
In the case of `COc1cc(C(=O)O)cc(-c2cnc(COc3ccc(C(=O)CC(C)(C)C)c(O)c3C)cn2)c1` [compound 129, 3-(5-((4-(3,3-Dimethylbutanoyl)-3-hydroxy-2-methylphenoxy)methyl)pyrazin-2-yl)-5-methoxybenzoic acid], the EC50 (Human mGlu3) is reported as 364 nM and the EC50 (Human mGlu2) is reported as 729 nM.
`Cc1c(OCc2nnc(-c3cccc(C(=O)O)c3)o2)ccc(C(=O)CC(C)(C)C)c1O` [compound 134, 3-(5-((4-(3,3-Dimethylbutanoyl)-3-hydroxy-2-methylphenoxy)methyl)-1,3,4-oxadiazol-2-yl)benzoic acid] gave an EC50 (Human mGlu3) of 327 nM and an EC50 (Human mGlu2) of 243 nM.
Compound `COc1ccc(C(=O)O)cc1OCCCCCCCOc1ccc(C(=O)CC(C)(C)C)c(O)c1C` [Example 20, 3-{7-[4-(3,3-Dimethylbutanoyl)-3-hydroxy-2-methylphenoxy]heptyloxy}-4-methoxybenzoic acid] has an EC50 (Human mGlu3) of 1060 nM and an EC50 (Human mGlu2) of 334 nM.
`COc1ccc(C(=O)O)cc1OCCCCOc1ccc(C(=O)CC(C)(C)C)c(O)c1-c1ccccc1` [compound 131, 3-(4-((5-(3,3-Dimethylbutanoyl)-6-hydroxy-[1,1′-biphenyl]-2-yl)oxy)butoxy)-4-methoxybenzoic acid] gave an EC50 (Human mGlu3) of 1050 nM and an EC50 (Human mGlu2) of 231 nM.
For `COc1ccc(C(=O)O)cc1OCCCCCCCCCCOc1ccc(C(=O)CC(C)(C)C)c(O)c1C` [Example 28, 3-{10-[4-(3,3-Dimethylbutanoyl)-3-hydroxy-2-methylphenoxy]decyloxy}-4-methoxybenzoic acid], the EC50 (Human mGlu3) was 995 nM and the EC50 (Human mGlu2) was 415 nM.
`Cc1c(OCc2nc(-c3cccc(C(=O)O)c3)no2)ccc(C(=O)C2CC2)c1O` [compound 77, 3-(5-((4-(Cyclopropanecarbonyl)-3-hydroxy-2-methylphenoxy)methyl)-1,2,4-oxadiazol-3-yl)benzoic acid] showed an EC50 (Human mGlu3) greater than 10000 nM and an EC50 (Human mGlu2) of 119 nM.
